The target in test [1] is T1, PhLOX (Pyropia haitanensis, UniProt J7JU42, F826L).
T1 construct: gene lox
As to conditions: 100 μM ALA, 0.1 mg/mL enzyme, pH 8.0, 20 °C, 15 min.

Test [2] addresses T2, PhLOX (Pyropia haitanensis, UniProt J7JU42, F642V/F826L).
T2 construct: gene lox
As to conditions: 100 μM ALA, 0.1 mg/mL enzyme, pH 8.0, 20 °C, 15 min.

The target of a further test is T3, SvLOX (Shewanella violacea, UniProt D4ZL63).
T3 construct: gene SVI_2441; SRPBCC domain + LOX domain
T3 sequence (D4ZL63 1-839): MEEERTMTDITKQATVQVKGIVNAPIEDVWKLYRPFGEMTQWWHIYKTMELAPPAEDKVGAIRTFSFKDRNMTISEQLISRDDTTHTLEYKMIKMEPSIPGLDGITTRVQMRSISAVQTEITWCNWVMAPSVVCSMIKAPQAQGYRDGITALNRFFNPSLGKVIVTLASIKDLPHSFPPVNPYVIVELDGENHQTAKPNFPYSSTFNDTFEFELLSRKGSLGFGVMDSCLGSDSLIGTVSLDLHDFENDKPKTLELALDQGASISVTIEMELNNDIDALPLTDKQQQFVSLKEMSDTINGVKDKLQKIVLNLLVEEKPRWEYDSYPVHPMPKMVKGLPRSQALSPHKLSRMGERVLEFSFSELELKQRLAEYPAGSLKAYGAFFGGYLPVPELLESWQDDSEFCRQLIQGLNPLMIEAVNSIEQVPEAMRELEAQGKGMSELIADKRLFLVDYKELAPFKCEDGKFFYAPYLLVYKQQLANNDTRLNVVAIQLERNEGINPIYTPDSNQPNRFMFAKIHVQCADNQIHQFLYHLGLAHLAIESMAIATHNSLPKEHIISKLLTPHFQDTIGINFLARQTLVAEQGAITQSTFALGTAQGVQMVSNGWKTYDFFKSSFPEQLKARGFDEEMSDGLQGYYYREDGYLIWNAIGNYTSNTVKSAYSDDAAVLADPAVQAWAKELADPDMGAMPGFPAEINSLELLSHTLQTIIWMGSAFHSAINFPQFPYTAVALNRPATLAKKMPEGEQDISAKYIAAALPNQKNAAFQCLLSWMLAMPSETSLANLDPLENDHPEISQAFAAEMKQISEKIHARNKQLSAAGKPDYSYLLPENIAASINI
In words: HPLC-MS and GC-MS of products. The class given is biochemical. As to conditions: 100 μM ARA, 0.1 mg/mL enzyme, pH 8.0, 20 °C, 1 min (HPLC-MS) or 15 min (GC-MS).

SMILES strings stand for the structures.

Results on two compounds are retold here after PMC11507377, “Intricate Evolution of Multifunctional Lipoxygenase in Red Algae” (International Journal of Molecular Sciences, 2024).

T1 sequence (J7JU42 entry or part of it F826L): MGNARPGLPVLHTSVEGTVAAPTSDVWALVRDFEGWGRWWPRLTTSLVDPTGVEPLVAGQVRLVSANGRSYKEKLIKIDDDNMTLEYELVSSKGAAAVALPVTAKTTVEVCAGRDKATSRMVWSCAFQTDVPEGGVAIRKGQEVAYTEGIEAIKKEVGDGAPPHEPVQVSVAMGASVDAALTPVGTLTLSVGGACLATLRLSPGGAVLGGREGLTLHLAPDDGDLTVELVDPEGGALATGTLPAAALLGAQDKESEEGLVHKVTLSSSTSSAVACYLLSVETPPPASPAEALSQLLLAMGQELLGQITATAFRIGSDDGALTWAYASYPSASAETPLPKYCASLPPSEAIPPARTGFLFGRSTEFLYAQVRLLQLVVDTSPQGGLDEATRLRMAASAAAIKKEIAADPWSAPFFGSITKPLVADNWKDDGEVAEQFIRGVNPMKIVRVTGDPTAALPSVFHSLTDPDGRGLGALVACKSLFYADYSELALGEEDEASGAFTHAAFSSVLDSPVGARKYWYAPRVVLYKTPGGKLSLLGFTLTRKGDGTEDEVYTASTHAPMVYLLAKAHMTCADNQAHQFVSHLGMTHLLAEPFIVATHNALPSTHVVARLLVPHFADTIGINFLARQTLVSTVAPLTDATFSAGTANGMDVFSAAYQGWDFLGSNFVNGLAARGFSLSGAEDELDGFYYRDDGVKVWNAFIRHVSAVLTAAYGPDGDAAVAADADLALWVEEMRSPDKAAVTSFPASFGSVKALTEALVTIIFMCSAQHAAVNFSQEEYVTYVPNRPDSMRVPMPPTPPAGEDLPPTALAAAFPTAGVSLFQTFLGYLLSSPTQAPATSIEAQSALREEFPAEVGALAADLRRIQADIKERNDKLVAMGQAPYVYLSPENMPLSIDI
T2 sequence (J7JU42 entry or part of it F642V/F826L): as the sequence (J7JU42 entry or part of it F826L) above, with F642V counted along it

Turning to `CC/C=C\C/C=C\C/C=C\CCCCCCCC(=O)O` [α-linolenic acid], the HPLC-MS of products entry was “(ALA) was incubated with the F826L mutant of PhLOX, much more 9-HpOTE was formed” on PhLOX [1] and “When ALA was incubated with the F642V-F826L double mutant of PhLOX, 13-HpOTE was the dominating product” at PhLOX [2]. `CCCCC/C=C\C/C=C\C/C=C\C/C=C\CCCC(=O)O` [arachidonic acid]: the “HPLC-MS and GC-MS of products” value at SvLOX is listed as “the incubation of ARA with SvLOX gave 12-hydroperoxy/hydroxy eicosatetraenoic acids”.
